Reference: US20160120863A1, “SLC2A TRANSPORTER INHIBITORS” (IOMET PHARMA LTD., priority 2013, published 2016)

Each molecule was assayed against T1, human GLUT1 (Homo sapiens, UniProt P11166) (assay: [3H]-deoxy-D-glucose uptake assay, GLUT1). Conditions: [3H]-deoxy-D-glucose uptake in HEK293 cells stably expressing human GLUT1.
T1 construct: expressed in transfected cells
T1 sequence (P11166 1-492): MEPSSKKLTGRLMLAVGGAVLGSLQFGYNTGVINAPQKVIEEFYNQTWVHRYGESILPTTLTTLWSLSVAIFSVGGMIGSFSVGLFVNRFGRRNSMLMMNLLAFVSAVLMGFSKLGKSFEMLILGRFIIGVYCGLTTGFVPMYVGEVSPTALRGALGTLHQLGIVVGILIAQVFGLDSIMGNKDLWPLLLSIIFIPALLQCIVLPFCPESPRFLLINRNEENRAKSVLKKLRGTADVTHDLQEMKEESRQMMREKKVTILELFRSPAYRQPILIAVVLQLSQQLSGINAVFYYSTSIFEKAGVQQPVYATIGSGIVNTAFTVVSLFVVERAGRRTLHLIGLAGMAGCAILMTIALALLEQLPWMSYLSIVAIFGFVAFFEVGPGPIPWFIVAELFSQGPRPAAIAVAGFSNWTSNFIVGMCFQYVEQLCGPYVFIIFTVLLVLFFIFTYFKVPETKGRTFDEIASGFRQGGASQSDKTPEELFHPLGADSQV
Type: cell-based
Method: HEK293 cells were engineered to stably express either human GLUT1, GLUT2, GLUt3 or GLUT4 by transfection with the pReceiver-Lv105 plasmid, containing either hGLUT1, hGLUT2, hGLUT3, or hGLUT4 gene constructs with lipofectamine 2000, hGLUT1- hGLUT2- hGLUT3- or hGLUT4-overexpressing polyclonal populations were isolated under purinomycin selective pressure (1 μg/ml) and maintained in Dulbecco's modified Eagle's medium supplemented with 1 μg/ml purinomycin+10% foetal bovine serum (FBS).
60,000 cells per well were seeded overnight into poly-D-lysine coasted 96-well plates. […] 90 μl of test compounds were added in glucose-free uptake buffer and cells were incubated at 37° C. for 30 min.
Cells were then washed twice with ice-cold PBS and 100 μl of Microscint-20 was added per well. Glucose uptake was quantified with a scintillation counter. The half maximal inhibitory concentration (IC50) (a measure of the effectiveness of the test compound in inhibiting glucose uptake) was determined.
In the case of `COc1ccc(NC(=O)N2CCN(Cc3c(-c4ccc(Cl)cc4)nc4ccc(-c5ccccc5)cn34)CC2)cc1` [Compound 68], the “GLUT1 pIC50” value is reported as “+ (pIC50 4.00-4.99)”.
For `Cc1ccc(C(=O)N2CCN(Cc3c(-c4ccc(Cl)cc4)nc4ccc(-c5ccccc5)cn34)CC2)cc1` [Compound 69], the “GLUT1 pIC50” value was “+++ (pIC50 ≧ 6.00)”.
For `COc1ccc(C(=O)N2CCN(Cc3c(-c4ccc(F)cc4)nc4ccc(-c5ccccc5)cn34)CC2)cc1` [Compound 70], the “GLUT1 pIC50” value was “+++ (pIC50 ≧ 6.00)”.
For `COc1cccc(-c2nc3ccc(-c4ccccc4)cn3c2CN2CCN(C(=O)c3ccccc3F)CC2)c1` [Compound 71], the “GLUT1 pIC50” value was “+++ (pIC50 ≧ 6.00)”.
In the case of `c1ccc(-c2ccc3nc(-c4ccncc4)c(CN4CCOCC4)n3c2)cc1` [Compound 72], the “GLUT1 pIC50” value is reported as “+− (pIC50 < 4.00)”.
For `COCc1c(-c2ccc(Cl)cc2)nc2ccc(-c3ccccc3)cn12` [Compound 73], the “GLUT1 pIC50” value was “+ (pIC50 4.00-4.99)”.
For `Clc1ccc(-c2nc3cnc(-c4ccccc4)cn3c2CN2CCOCC2)cc1` [Compound 75], the “GLUT1 pIC50” value was “+++ (pIC50 ≧ 6.00)”.
`Fc1ccc(-c2nc3ccc(-c4ccccc4)cn3c2CN2CCOCC2)cc1` [Compound 76] was tested, and the “GLUT1 pIC50” value was “+ (pIC50 4.00-4.99)”.
For `Clc1ccc(-c2nc3ncc(-c4ccccc4)cn3c2CN2CCOCC2)cc1` [Compound 77], the “GLUT1 pIC50” value was “+− (pIC50 < 4.00)”.
`CCNC(=O)c1nc2ccc(-c3ccccc3)cn2c1CN1CCOCC1` [Compound 78] was tested, and the “GLUT1 pIC50” value was “+− (pIC50 < 4.00)”.
`Fc1cccc(-c2ccc3nc(-c4ccc(Cl)cc4)c(CN4CCOCC4)n3c2)c1` [Compound 81] was tested, and the “GLUT1 pIC50” value was “+ (pIC50 4.00-4.99)”.
With `Clc1ccc(-c2nc3ccc(-c4ccncc4)cn3c2CN2CCOCC2)cc1` [Compound 82] the “GLUT1 pIC50” value was “++ (pIC50 5.00-5.99)”.
For `Clc1ccc(-c2nc3ccc(-c4cccnc4)cn3c2CN2CCOCC2)cc1` [Compound 83], the “GLUT1 pIC50” value was “++ (pIC50 5.00-5.99)”.
`COc1cccc(-c2ccc3nc(-c4ccc(Cl)cc4)c(CN4CCOCC4)n3c2)c1` [Compound 84] was tested, and the “GLUT1 pIC50” value was “++ (pIC50 5.00-5.99)”.
`COc1ccccc1-c1ccc2nc(-c3ccc(Cl)cc3)c(CN3CCOCC3)n2c1` [Compound 85] was tested, and the “GLUT1 pIC50” value was “++ (pIC50 5.00-5.99)”.
In the case of `COc1ccc(-c2ccc3nc(-c4ccc(Cl)cc4)c(CN4CCOCC4)n3c2)cc1` [Compound 86], the “GLUT1 pIC50” value is reported as “+ (pIC50 4.00-4.99)”.
`Clc1ccc(-c2nc3ccc(C4CC4)cn3c2CN2CCOCC2)cc1` [Compound 87] was tested, and the “GLUT1 pIC50” value was “++ (pIC50 5.00-5.99)”.
In the case of `CC(C)(C)OC(=O)N1CCN(Cc2c(-c3ccc(Cl)cc3)nc3ccc(-c4ccccc4)cn23)CC1` [Compound 88], the “GLUT1 pIC50” value is reported as “+− (pIC50 < 4.00)”.
In the case of `Clc1ccc(-c2nc3ccc(-c4ccccc4)cn3c2CN2CCNCC2)cc1` [Compound 89], the “GLUT1 pIC50” value is reported as “+ (pIC50 4.00-4.99)”.
For `O=S(=O)(c1cccc(F)c1)N1CCN(Cc2c(-c3ccc(Cl)cc3)nc3ccc(-c4ccccc4)cn23)CC1` [Compound 90], the “GLUT1 pIC50” value was “+− (pIC50 < 4.00)”.
`N#Cc1cccc(-c2ccc3nc(-c4ccc(Cl)cc4)c(CN4CCOCC4)n3c2)c1` [Compound 92] was tested, and the “GLUT1 pIC50” value was “+− (pIC50 < 4.00)”.
For `NC(=O)c1ccccc1-c1ccc2nc(-c3ccc(Cl)cc3)c(CN3CCOCC3)n2c1` [Compound 94], the “GLUT1 pIC50” value was “+ (pIC50 4.00-4.99)”.
With `NC(=O)c1ccc(-c2ccc3nc(-c4ccc(Cl)cc4)c(CN4CCOCC4)n3c2)cc1` [Compound 95] the “GLUT1 pIC50” value was “+ (pIC50 4.00-4.99)”.
In the case of `CN(C)Cc1c(-c2ccc(Cl)cc2)nc2ccc(-c3ccccc3)cn12` [Compound 97], the “GLUT1 pIC50” value is reported as “+ (pIC50 4.00-4.99)”.
`Clc1ccc(-c2nc3ccc(-c4ccccc4)cn3c2CN2CCCCC2)cc1` [Compound 98] was tested, and the “GLUT1 pIC50” value was “+ (pIC50 4.00-4.99)”.
In the case of `N#Cc1cccc(-c2nc3ccc(-c4ccccc4)cn3c2CN2CCOCC2)c1` [Compound 100], the “GLUT1 pIC50” value is reported as “+ (pIC50 4.00-4.99)”.
With `COc1ccc(-c2nc3ccc(-c4ccccc4)cn3c2CN2CCOCC2)cc1` [Compound 101] the “GLUT1 pIC50” value was “++ (pIC50 5.00-5.99)”.
`COc1cccc(-c2nc3ccc(-c4ccccc4)cn3c2CN2CCOCC2)c1` [Compound 102] was tested, and the “GLUT1 pIC50” value was “++ (pIC50 5.00-5.99)”.
For `c1ccc(-c2ccc3nc(-c4ccccc4)c(CN4CCOCC4)n3c2)cc1` [Compound 103], the “GLUT1 pIC50” value was “+ (pIC50 4.00-4.99)”.
In the case of `COc1ccccc1-c1nc2ccc(-c3ccccc3)cn2c1CN1CCOCC1` [Compound 104], the “GLUT1 pIC50” value is reported as “+ (pIC50 4.00-4.99)”.
In the case of `Clc1ccccc1-c1nc2ccc(-c3ccccc3)cn2c1CN1CCOCC1` [Compound 105], the “GLUT1 pIC50” value is reported as “++ (pIC50 5.00-5.99)”.
For `N#Cc1ccc(-c2nc3ccc(-c4ccccc4)cn3c2CN2CCOCC2)cc1` [Compound 106], the “GLUT1 pIC50” value was “+− (pIC50 < 4.00)”.
In the case of `Clc1cccc(-c2nc3ccc(-c4ccccc4)cn3c2CN2CCOCC2)c1` [Compound 107], the “GLUT1 pIC50” value is reported as “++ (pIC50 5.00-5.99)”.
With `NC(=O)c1ccc(-c2nc3ccc(-c4ccccc4)cn3c2CN2CCOCC2)cc1` [Compound 109] the “GLUT1 pIC50” value was “+− (pIC50 < 4.00)”.
For `Clc1ccc(-c2nc3ccc(-c4cncnc4)cn3c2CN2CCOCC2)cc1` [Compound 110], the “GLUT1 pIC50” value was “+ (pIC50 4.00-4.99)”.
`FC(F)(F)c1ccc(-c2nc3ccc(-c4ccccc4)cn3c2CN2CCOCC2)cc1` [Compound 112] was tested, and the “GLUT1 pIC50” value was “++ (pIC50 5.00-5.99)”.
For `Cc1ccccc1-c1ccc2nc(-c3ccc(Cl)cc3)c(CN3CCOCC3)n2c1` [Compound 115], the “GLUT1 pIC50” value was “+++ (pIC50 ≧ 6.00)”.
In the case of `CCN(CC)C(=O)c1ccc2nc(-c3ccc(Cl)cc3)c(CN3CCOCC3)n2c1` [Compound 117], the “GLUT1 pIC50” value is reported as “+ (pIC50 4.00-4.99)”.
For `CCNC(=O)c1ccc2nc(-c3ccc(Cl)cc3)c(CN3CCOCC3)n2c1` [Compound 118], the “GLUT1 pIC50” value was “+ (pIC50 4.00-4.99)”.
With `Clc1ccc(-c2nc3ccc(-c4cccs4)cn3c2CN2CCOCC2)cc1` [Compound 119] the “GLUT1 pIC50” value was “++ (pIC50 5.00-5.99)”.
With `Clc1ccc(-c2nc3ccc(-c4ccccn4)cn3c2CN2CCOCC2)cc1` [Compound 120] the “GLUT1 pIC50” value was “++ (pIC50 5.00-5.99)”.
With `CCNC(=O)c1cccc2nc(-c3ccc(Cl)cc3)c(CN3CCOCC3)n12` [Compound 121] the “GLUT1 pIC50” value was “+− (pIC50 < 4.00)”.
`Clc1ccc(-c2nc3ccc(N4CCOCC4)cn3c2CN2CCOCC2)cc1` [Compound 122] was tested, and the “GLUT1 pIC50” value was “++ (pIC50 5.00-5.99)”.
`Clc1ccc(-c2nc3ccc(Br)cn3c2CN2CCOCC2)cc1` [Compound 124] was tested, and the “GLUT1 pIC50” value was “+ (pIC50 4.00-4.99)”.
In the case of `CN1CCN(Cc2c(-c3ccc(Cl)cc3)nc3ccc(-c4ccccc4)cn23)CC1` [Compound 125], the “GLUT1 pIC50” value is reported as “+ (pIC50 4.00-4.99)”.
For `COc1ccccc1C(=O)N1CCN(Cc2c(-c3ccc(Cl)cc3)nc3ccc(-c4ccccc4)cn23)CC1` [Compound 128], the “GLUT1 pIC50” value was “+++ (pIC50 ≧ 6.00)”.
For `COc1cccc(C(=O)N2CCN(Cc3c(-c4ccc(Cl)cc4)nc4ccc(-c5ccccc5)cn34)CC2)c1` [Compound 129], the “GLUT1 pIC50” value was “+++ (pIC50 ≧ 6.00)”.
With `O=C1CN(Cc2c(-c3ccc(Cl)cc3)nc3ccc(-c4ccccc4)cn23)CCN1` [Compound 130] the “GLUT1 pIC50” value was “++ (pIC50 5.00-5.99)”.
`O=C(C1CC1)N1CCN(Cc2c(-c3ccc(Cl)cc3)nc3ccc(-c4ccccc4)cn23)CC1` [Compound 133] was tested, and the “GLUT1 pIC50” value was “+++ (pIC50 ≧ 6.00)”.
In the case of `O=C1CN(Cc2c(-c3ccc(Cl)cc3)nc3ccc(-c4ccccc4)cn23)CCN1Cc1ccccc1` [Compound 134], the “GLUT1 pIC50” value is reported as “++ (pIC50 5.00-5.99)”.
In the case of `c1ccc(-c2ccc3nc(-c4cccnc4)c(CN4CCOCC4)n3c2)cc1` [Compound 139], the “GLUT1 pIC50” value is reported as “+ (pIC50 4.00-4.99)”.
`O=C(c1ccccn1)N1CCN(Cc2c(-c3ccc(Cl)cc3)nc3ccc(-c4ccccc4)cn23)CC1` [Compound 144] was tested, and the “GLUT1 pIC50” value was “+++ (pIC50 ≧ 6.00)”.
`O=C(c1cccnc1)N1CCN(Cc2c(-c3ccc(Cl)cc3)nc3ccc(-c4ccccc4)cn23)CC1` [Compound 145] was tested, and the “GLUT1 pIC50” value was “+++ (pIC50 ≧ 6.00)”.
In the case of `O=C(c1ccncc1)N1CCN(Cc2c(-c3ccc(Cl)cc3)nc3ccc(-c4ccccc4)cn23)CC1` [Compound 152], the “GLUT1 pIC50” value is reported as “+++ (pIC50 ≧ 6.00)”.
In the case of `FC(F)(F)Oc1ccccc1-c1ccc2nc(-c3ccc(Cl)cc3)c(CN3CCOCC3)n2c1` [Compound 153], the “GLUT1 pIC50” value is reported as “+− (pIC50 < 4.00)”.
For `COc1ccc2nc(-c3ccc(Cl)cc3)c(CN3CCOCC3)n2c1` [Compound 154], the “GLUT1 pIC50” value was “+ (pIC50 4.00-4.99)”.
For `Cc1ccc(-c2nc3ccc(-c4ccccc4)cn3c2CN2CCOCC2)cc1` [Compound 157], the “GLUT1 pIC50” value was “++ (pIC50 5.00-5.99)”.
With `Clc1ccc(-c2nc3ccc(Oc4ccccc4)cn3c2CN2CCOCC2)cc1` [Compound 158] the “GLUT1 pIC50” value was “+ (pIC50 4.00-4.99)”.
`O=C(c1cscn1)N1CCN(Cc2c(-c3ccc(Cl)cc3)nc3ccc(-c4ccccc4)cn23)CC1` [Compound 159] was tested, and the “GLUT1 pIC50” value was “+++ (pIC50 ≧ 6.00)”.
`O=C1CCCN1c1ccc2nc(-c3ccc(Cl)cc3)c(CN3CCOCC3)n2c1` [Compound 162] was tested, and the “GLUT1 pIC50” value was “+ (pIC50 4.00-4.99)”.
`CCOC(=O)c1ccc2nc(-c3ccc(Cl)cc3)c(CN3CCOCC3)n2c1` [Compound 163] was tested, and the “GLUT1 pIC50” value was “+ (pIC50 4.00-4.99)”.
In the case of `O=C(c1ccc(F)cc1)N1CCN(Cc2c(-c3ccc(Cl)cc3)nc3cnc(-c4ccccc4)cn23)CC1` [Compound 168], the “GLUT1 pIC50” value is reported as “+++ (pIC50 ≧ 6.00)”.
